Like-named read-outs stand apart in the source and are kept apart here.
Key:
HL-60 cells = assay: retinoid induction of differentiation of HL-60 cells (NBT); format: cell-based; conditions: Homo sapiens, HL-60, 96 h; 4-day induction of differentiation; read-out: ED50 (nM) HL-60
RARα/RXRα = target: T1, RARα/RXRα (Homo sapiens, UniProt P10276+P19793); assay: cell-based
T1 sequence (P10276 1-462): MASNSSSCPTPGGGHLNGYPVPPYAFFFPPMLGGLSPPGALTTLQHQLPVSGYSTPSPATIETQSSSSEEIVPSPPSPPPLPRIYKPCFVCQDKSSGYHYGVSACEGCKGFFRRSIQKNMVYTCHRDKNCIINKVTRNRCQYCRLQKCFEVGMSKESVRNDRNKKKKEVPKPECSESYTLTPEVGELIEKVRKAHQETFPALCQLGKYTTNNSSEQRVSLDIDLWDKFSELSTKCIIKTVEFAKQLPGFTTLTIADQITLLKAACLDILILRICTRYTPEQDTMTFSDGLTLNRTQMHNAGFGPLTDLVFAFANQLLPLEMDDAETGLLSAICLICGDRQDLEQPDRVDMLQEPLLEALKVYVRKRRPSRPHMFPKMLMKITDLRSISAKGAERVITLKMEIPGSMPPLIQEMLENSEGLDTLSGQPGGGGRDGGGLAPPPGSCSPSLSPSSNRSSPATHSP
T1 sequence (P19793 1-462): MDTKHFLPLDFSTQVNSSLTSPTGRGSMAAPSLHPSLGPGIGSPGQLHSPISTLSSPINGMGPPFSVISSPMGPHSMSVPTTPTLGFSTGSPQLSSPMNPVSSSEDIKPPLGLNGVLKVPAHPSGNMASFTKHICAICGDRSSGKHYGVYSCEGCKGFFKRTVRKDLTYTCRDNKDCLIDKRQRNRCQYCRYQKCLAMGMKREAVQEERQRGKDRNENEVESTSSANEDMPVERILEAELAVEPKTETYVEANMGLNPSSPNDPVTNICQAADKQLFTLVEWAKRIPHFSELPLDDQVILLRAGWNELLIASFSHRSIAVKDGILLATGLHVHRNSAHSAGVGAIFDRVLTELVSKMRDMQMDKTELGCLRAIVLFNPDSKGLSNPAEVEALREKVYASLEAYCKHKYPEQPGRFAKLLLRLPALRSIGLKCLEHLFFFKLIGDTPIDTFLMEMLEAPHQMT
Procedure: (§1) These assays were performed in CV-1 cells with the RAR or RXR gene and the chloramphenicol acetyltransferase (CAT) reporter gene containing TREpal with a thymidine kinase promoter [(TREpal)2 -tk-CAT]. Twenty-four hours after transfection, cells were treated with a single dose of retinoid and the cell extracts were assayed for b-galactosidase and CAT activity. The antagonistic effects of UAB30 retinoids on the transcription of RAR-α were also determined in CV-1 cells. The methods are nearly identical to those used to perform transcriptional assays. These studies utilized the CAT reporter gene [(TREpal)2 -tk-CAT]. […] After 24 hours, cells were harvested and the transcriptional effects were measured in relative CAT activity, after correction with β-galactosidase activity for transfection efficiency. […] Experiments were performed in triplicate and the data were averaged.

NB4 cells [1] = assay: retinoid metabolism in NB4 cells; format: in vitro ADME
mouse skin papilloma = assay: mouse skin antipapilloma assay; conditions: 45.9 nmol dose
Procedure: The mouse skin antipapilloma assay measured the ED50 values for retinoid tumor inhibition on the dorsal skin of mice. The inhibition of mouse skin papilloma by retinoids was performed according to a modification of the procedure developed by Verma and Boutwell (14) as reported previously by Muccio et al. (8).
The UAB30 retinoids were evaluated next for their activity in preventing the chemical induction of papillomas on mouse skin (14).

NB4 cells [2] = assay: retinoid induction of differentiation of NB4 cells (NBT); format: cell-based, Human; conditions: read-out: ED30 NB4 cell differentiation
RXRα = RXRα (Homo sapiens, UniProt P19793); assay: RXRα homodimer-mediated transcriptional activation in CV-1 cells; format: cell-based
Procedure: as §1

RARβ = target: T2, RARβ (Homo sapiens, UniProt P10826); assay: nuclear receptor radiolabeled competition binding, RARβ
T2 construct: expressed in transfected cells; host or cells: CV-1 cells
T2 sequence (P10826 1-455): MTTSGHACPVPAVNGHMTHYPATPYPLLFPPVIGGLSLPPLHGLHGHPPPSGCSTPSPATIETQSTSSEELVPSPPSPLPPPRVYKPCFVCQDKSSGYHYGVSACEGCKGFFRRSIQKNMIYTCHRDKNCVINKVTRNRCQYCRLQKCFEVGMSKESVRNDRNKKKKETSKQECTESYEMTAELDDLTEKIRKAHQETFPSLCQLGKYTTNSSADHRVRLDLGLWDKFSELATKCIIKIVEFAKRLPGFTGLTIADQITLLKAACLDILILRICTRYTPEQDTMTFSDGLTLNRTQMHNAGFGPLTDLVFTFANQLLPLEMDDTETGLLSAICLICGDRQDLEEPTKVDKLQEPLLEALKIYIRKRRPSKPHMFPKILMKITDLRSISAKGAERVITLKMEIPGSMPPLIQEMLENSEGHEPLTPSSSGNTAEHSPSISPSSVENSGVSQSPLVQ
Procedure: (§2) For active retinoids, IC50 values were determined by titration with varying concentrations of UAB retinoids.

RARα [3] = target: T3, RARα (Homo sapiens, UniProt P10276); assay: nuclear receptor radiolabeled competition binding, RARα
T3 sequence (P10276 1-462): T1 sequence (P10276 1-462)
Procedure: as §2

RARα [4] = target: T3, RARα; assay: cell-based
Procedure: as §1
UAB30 isomers were evaluated in assays which measures their functional activity within cells to induce RARα-, RARβ-, and RARγ-mediated transcriptional activity. CV-1 cells were transiently transfected with DNA plasmid from the appropriate RAR subtype and (TREpal)2 -tk-CAT (9, 19).

CCC1=C(C(C)C)/C(=C/C(C)=C/C=C/C(C)=C/C(=O)O)CCC1 [(all-E)-UAB8]
EC50 (HL-60 cells): > 10000 nM
EC50 (RARα/RXRα): 68 nM
metabolism / metabolic stability (NB4 cells [1]): metabolized at the same rate as ATRA
prevention of papilloma (tumor) formation (mouse skin papilloma): 99%
EC30 (NB4 cells [2]; in combination with 9-cis-UAB8 (FIG. 8B)): 25 nM
EC30 (NB4 cells [2]; retinoid alone, 3 days): 110 nM
EC50 (RXRα): > 2000 nM
IC50 (RARβ): 6 nM
IC50 (RARα [3]): 14 nM
EC50 (RARα [4]): 33 nM

— patent publication US6172112A, “Retinoids and use thereof” (priority 1999, dated 2001)
